According to patent US8017612B2, “Piperazine compound and use thereof as a HCV polymerase inhibitor” (priority 2006, dated 2011):
Structures can show the parent of a compound that is named as a salt.

What was measured:
[1] = biological target: T1, HCV polymerase (NS5B) type 1b (Hepatitis C virus genotype 1b, UniProt P26663); assay: Assay of enzyme (HCV polymerase) inhibitory activity, type 1b enzyme; type: biochemical, HCV BK strain (type 1b); conditions: HCV polymerase inhibitory activity IC50, 1b, type 1b enzyme
T1 construct: a region encoding NS5B (J Virol 1991 March, 65(3), 1105-13, 544 amino acids after deletion of 47 amino acids on the C-terminal); 6xHis (C); made in house; host or cells: Escherichia coli
In short: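 Rxn: NS5B 1b (BK, ΔC47, His6) 0.5 μg/ml; substrate RNA 5 μg/ml; ATP/GTP/CTP 50 μM, UTP 2 μM + [5,6-3H]UTP; 20 mM Tris pH 7.5, 5 mM MgCl2, 50 mM NaCl, 1 mM EDTA/DTT. 25 °C, 60 min. Stop with TCA/pyrophosphate, filter, scintillation count; IC50 vs. untreated.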

[2] = biological target: T2, HCV polymerase (NS5B) type 1a (Hepatitis C virus genotype 1a, UniProt P26664); assay: Assay of enzyme (HCV polymerase) inhibitory activity, type 1a enzyme; type: biochemical, HCV type 1a (cloned from the blood of patients); conditions: HCV polymerase inhibitory activity IC50, 1a, type 1a enzyme
T2 construct: made in house; host or cells: Escherichia coli (by the 'similar method' of the 1b enzyme)
In short: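 NS5B Δ47 C-term His6 (type 1a, 1.5 μg/ml); substrate RNA 5 μg/ml; ATP/GTP/CTP 50 μM, UTP 2 μM + [5,6-3H]UTP; Tris pH 7.5, MgCl2 5 mM; 25° C, 60 min. TCA/pyrophosphate stop, GF/B filter, scintillation. IC50 vs no-compound control.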

Row | SMILES | IC50 [1] [nM] | IC50 [2] [nM]
1 | O=C(NCc1ccc(OC(F)(F)F)cc1)[C@H]1CN(c2nc3ncncc3s2)CCN1S(=O)(=O)c1ccc(OC(F)F)cc1 [Example 919, (R)-1-(4-difluoromethoxy-benzenesulfonyl)-4-thiazolo[4,5-d]pyrimidin-2-yl-piperazine-2-carboxylic acid 4-trifluoromethoxy-benzylamide] | < 100 | < 100
2 | Cc1cc(=O)n2nc(N3CCN(S(=O)(=O)c4ccc(OC(F)(F)F)cc4)[C@@H](C(=O)NCc4ccc(OC(F)(F)F)cc4)C3)sc2n1 [Example 920, (R)-4-(7-methyl-5-oxo-5H-[1,3,4]thiadiazolo[3,2-a]pyrimidin-2-yl)-1-(4-trifluoromethoxy-benzenesulfonyl)-piperazine-2-carboxylic acid 4-trifluoromethoxy-benzylamide] | < 100 | 100 to 1000
3 | Cc1ncc2nc(N3CCN(S(=O)(=O)c4ccc(OC(F)(F)F)cc4)[C@@H](C(=O)NCc4ccc(OC(F)(F)F)cc4)C3)sc2n1 [Example 921, (R)-4-(5-methyl-thiazolo[5,4-d]pyrimidin-2-yl)-1-(4-trifluoromethoxy-benzenesulfonyl)-piperazine-2-carboxylic acid 4-trifluoromethoxy-benzylamide] | < 100 | 100 to 1000
4 | O=C(NCc1ccc(OC(F)(F)F)cc1)[C@H]1CN(c2nn3cnnc3s2)CCN1S(=O)(=O)c1ccc(OC(F)(F)F)cc1 [Example 922, (R)-4-[1,2,4]triazolo[3,4-b][1,3,4]thiadiazol-6-yl-1-(4-trifluoromethoxy-benzenesulfonyl)-piperazine-2-carboxylic acid 4-trifluoromethoxy-benzylamide] | < 100 | < 100
5 | O=C1CCC(N2CCN(S(=O)(=O)c3ccc(OC(F)(F)F)cc3)[C@@H](C(=O)NCc3ccc(OC(F)(F)F)cc3)C2)CN1 (stereo partly drawn) [Example 923, (R)-4-(6-oxo-piperidin-3-yl)-1-(4-trifluoromethoxy-benzenesulfonyl)-piperazine-2-carboxylic acid 4-trifluoromethoxy-benzylamide] | 100 to 1000 | 100 to 1000
6 | O=C(NCc1ccc(OC(F)(F)F)cc1)[C@H]1CN(c2ccc(=O)[nH]c2)CCN1S(=O)(=O)c1ccc(OC(F)(F)F)cc1 [Example 924, (R)-4-(6-oxo-1,6-dihydro-pyridin-3-yl)-1-(4-trifluoromethoxy-benzenesulfonyl)-piperazine-2-carboxylic acid 4-trifluoromethoxy-benzylamide hydrochloride] | 100 to 1000 | 100 to 1000
7 | Cc1ncc2sc(N3CCN(S(=O)(=O)c4ccc(C(F)(F)F)cc4)[C@@H](C(=O)NCc4ccc(OC(F)(F)F)cc4)C3)nc2n1 [Example 925, (R)-4-(5-methyl-thiazolo[4,5-d]pyrimidin-2-yl)-1-(4-trifluoromethyl-benzenesulfonyl)-piperazine-2-carboxylic acid 4-trifluoromethoxy-benzylamide] | < 100 | < 100
8 | CCC(F)(F)c1ccc(CNC(=O)[C@H]2CN(c3nc4nc(C)ncc4s3)CCN2S(=O)(=O)c2ccc(OC(F)(F)F)cc2)cc1 [Example 926, (R)-4-(5-methyl-thiazolo[4,5-d]pyrimidin-2-yl)-1-(4-trifluoromethoxy-benzenesulfonyl)-piperazine-2-carboxylic acid 4-(1,1-difluoro-propyl)-benzylamide] | < 100 | < 100
9 | Cc1nc(Cl)c2sc(N3CCN(S(=O)(=O)c4ccc(C(F)(F)F)cc4)[C@@H](C(=O)NCc4ccc(OC(F)(F)F)cc4)C3)nc2n1 [Example 927, (R)-4-(7-chloro-5-methyl-thiazolo[4,5-d]pyrimidin-2-yl)-1-(4-trifluoromethyl-benzenesulfonyl)-piperazine-2-carboxylic acid 4-trifluoromethoxy-benzylamide] | < 100 | < 100
10 | CCC(F)(F)c1ccc(CNC(=O)[C@H]2CN(c3nc4nc(C)nc(Cl)c4s3)CCN2S(=O)(=O)c2ccc(OC(F)(F)F)cc2)cc1 [Example 928, (R)-4-(7-chloro-5-methyl-thiazolo[4,5-d]pyrimidin-2-yl)-1-(4-trifluoromethoxy-benzenesulfonyl)-piperazine-2-carboxylic acid 4-(1,1-difluoro-propyl)-benzylamide] | < 100 | < 100
11 | COc1ncc2sc(N3CCN(S(=O)(=O)c4ccc(OC(F)(F)F)cc4)[C@@H](C(=O)NCc4ccc(OC(F)(F)F)cc4)C3)nc2n1 [Example 929, (R)-4-(5-methoxy-thiazolo[4,5-d]pyrimidin-2-yl)-1-(4-trifluoromethoxy-benzenesulfonyl)-piperazine-2-carboxylic acid 4-trifluoromethoxy-benzylamide] | < 100 | < 100
12 | CN(C)C(=O)c1nncc2sc(N3CCN(S(=O)(=O)c4ccc(OC(F)(F)F)cc4)[C@@H](C(=O)NCc4ccc(OC(F)(F)F)cc4)C3)nc12 [Example 930, 2-[(R)-4-(4-trifluoromethoxy-benzenesulfonyl)-3-(4-trifluoromethoxy-benzylcarbamoyl)-piperazin-1-yl]-thiazolo[4,5-d]pyridazine-4-carboxylic acid dimethylamide] | < 100 | < 100
13 | O=C(NCc1ccc(OC(F)F)cc1)[C@H]1CN(c2nc3nc(Cl)ncc3s2)CCN1S(=O)(=O)c1ccc(OC(F)(F)F)cc1 [Example 931, (R)-4-(5-chloro-thiazolo[4,5-d]pyrimidin-2-yl)-1-(4-trifluoromethoxy-benzenesulfonyl)-piperazine-2-carboxylic acid 4-difluoromethoxy-benzylamide] | < 100 | < 100
14 | O=C(NCc1ccc(OC(F)F)cc1)[C@H]1CN(c2nc3ncncc3s2)CCN1S(=O)(=O)c1ccc(OC(F)(F)F)cc1 [Example 932, (R)-4-thiazolo[4,5-d]pyrimidin-2-yl-1-(4-trifluoromethoxy-benzenesulfonyl)-piperazine-2-carboxylic acid 4-difluoromethoxy-benzylamide] | < 100 | < 100
15 | Cc1nnc2sc(N3CCN(S(=O)(=O)c4ccc(OC(F)(F)F)cc4)[C@@H](C(=O)NCc4ccc(OC(F)(F)F)cc4)C3)nn12 [Example 933, (R)-4-(3-methyl-[1,2,4]triazolo[3,4-b][1,3,4]thiadiazol-6-yl)-1-(4-trifluoromethoxy-benzenesulfonyl)-piperazine-2-carboxylic acid 4-trifluoromethoxy-benzylamide] | < 100 | < 100
16 | CCC(F)(F)c1ccc(CNC(=O)[C@H]2CN(c3nc4nc(C)nc(Cl)c4s3)CCN2S(=O)(=O)c2ccc(C(F)(F)F)cc2)cc1 [Example 934, (R)-4-(7-chloro-5-methyl-thiazolo[4,5-d]pyrimidin-2-yl)-1-(4-trifluoromethyl-benzenesulfonyl)-piperazine-2-carboxylic acid 4-(1,1-difluoro-propyl)-benzylamide] | < 100 | < 100
17 | CCC(F)(F)c1ccc(CNC(=O)[C@H]2CN(c3nc4nc(C)ncc4s3)CCN2S(=O)(=O)c2ccc(C(F)(F)F)cc2)cc1 [Example 935, (R)-4-(5-methyl-thiazolo[4,5-d]pyrimidin-2-yl)-1-(4-trifluoromethyl-benzenesulfonyl)-piperazine-2-carboxylic acid 4-(1,1-difluoro-propyl)-benzylamide] | < 100 | < 100
